# US12215140B2, “Method of stabilizing protein contained in specimen and solution for stabilizing protein contained in specimen” (EIKEN KAGAKU KABUSHIKI KAISHA, priority 2018, dated 2025)
# System: hemoglobin-haptoglobin complex
# Test: Stability of hemoglobin (as hemoglobin-haptoglobin complex) in samples preserved at 37° C. in preservation solution containing 1 unit/L haptoglobin, Hb measured by latex agglutination method (Examples 1 to 7)
# Design: species or system human
# Settings: for Hb concentration / Recovery ratio with respect to Hb concentration after 0 days / Recovery ratio with respect to Hb after 0 days: 37° C.
# In short: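 Hemoglobin (~300 µg/L) in 0.5% fecal suspension, or without feces, held at 37 °C for 0–21 days in 40 mmol/L HEPES pH 6.8, 0.1% BSA, 0.1% NaN3, 1 unit/L haptoglobin, with 0–100 mmol/L phenylboronic acid ± sugars. Hb quantified by latex agglutination with anti-human Hb rabbit polyclonal; recovery (%) relative to day 0.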
# [1] = Feces 3, sugar 50 mmol/L + phenylboronic acid 15 mmol/L, 7 days
# [2] = Feces 3, sugar 50 mmol/L + phenylboronic acid 15 mmol/L, 14 days
# [3] = Feces 3, sugar 50 mmol/L + phenylboronic acid 15 mmol/L, 21 days
# [4] = Feces 3, sugar 100 mmol/L + phenylboronic acid 0.5 mmol/L, 0 days
# [5] = Feces 3, sugar 100 mmol/L + phenylboronic acid 0.5 mmol/L, 7 days
# [6] = Feces 3, sugar 100 mmol/L + phenylboronic acid 0.5 mmol/L, 14 days
# [7] = Feces 3, sugar 100 mmol/L + phenylboronic acid 15 mmol/L, 0 days
# [8] = Feces 3, sugar 100 mmol/L + phenylboronic acid 15 mmol/L, 0 days (Table 7)
# [9] = Feces 3, sugar 100 mmol/L + phenylboronic acid 15 mmol/L, 7 days
# [10] = Feces 3, sugar 100 mmol/L + phenylboronic acid 15 mmol/L, 7 days (Table 7)
# [11] = Feces 3, sugar 100 mmol/L + phenylboronic acid 15 mmol/L, 14 days
# [12] = Feces 3, sugar 100 mmol/L + phenylboronic acid 15 mmol/L, 14 days (Table 7)
# [13] = Feces 3, sugar 100 mmol/L + phenylboronic acid 15 mmol/L, 21 days
# [14] = Feces 3, sugar 100 mmol/L + phenylboronic acid 50 mmol/L, 0 days
# [15] = Feces 3, sugar 100 mmol/L + phenylboronic acid 50 mmol/L, 7 days
# [16] = Feces 3, sugar 100 mmol/L + phenylboronic acid 50 mmol/L, 14 days
# [17] = Feces 3, sugar 100 mmol/L, no phenylboronic acid, 0 days
# [18] = Feces 3, sugar 100 mmol/L, no phenylboronic acid, 7 days
# [19] = Feces 3, sugar 100 mmol/L, no phenylboronic acid, 14 days
# [20] = Feces 3, sugar 100 mmol/L, no phenylboronic acid, 21 days
# [21] = No feces, sugar 50 mmol/L + phenylboronic acid 15 mmol/L, 0 days
# [22] = No feces, sugar 50 mmol/L + phenylboronic acid 15 mmol/L, 7 days
# [23] = No feces, sugar 50 mmol/L + phenylboronic acid 15 mmol/L, 14 days
# [24] = No feces, sugar 50 mmol/L + phenylboronic acid 15 mmol/L, 21 days
# [25] = No feces, sugar 100 mmol/L + phenylboronic acid 0.5 mmol/L, 0 days
# [26] = No feces, sugar 100 mmol/L + phenylboronic acid 0.5 mmol/L, 7 days
# [27] = No feces, sugar 100 mmol/L + phenylboronic acid 0.5 mmol/L, 14 days
# [28] = No feces, sugar 100 mmol/L + phenylboronic acid 15 mmol/L, 0 days
# [29] = No feces, sugar 100 mmol/L + phenylboronic acid 15 mmol/L, 0 days (Table 7)
# [30] = No feces, sugar 100 mmol/L + phenylboronic acid 15 mmol/L, 7 days
# [31] = No feces, sugar 100 mmol/L + phenylboronic acid 15 mmol/L, 7 days (Table 7)
# [32] = No feces, sugar 100 mmol/L + phenylboronic acid 15 mmol/L, 14 days
# [33] = No feces, sugar 100 mmol/L + phenylboronic acid 15 mmol/L, 14 days (Table 7)
# [34] = No feces, sugar 100 mmol/L + phenylboronic acid 15 mmol/L, 21 days
# [35] = No feces, sugar 100 mmol/L + phenylboronic acid 50 mmol/L, 0 days
# [36] = No feces, sugar 100 mmol/L + phenylboronic acid 50 mmol/L, 7 days
# [37] = No feces, sugar 100 mmol/L + phenylboronic acid 50 mmol/L, 14 days
# [38] = No feces, sugar 100 mmol/L, no phenylboronic acid, 0 days
# [39] = No feces, sugar 100 mmol/L, no phenylboronic acid, 7 days
# [40] = No feces, sugar 100 mmol/L, no phenylboronic acid, 14 days
# [41] = No feces, sugar 100 mmol/L, no phenylboronic acid, 21 days
structure (smiles),measurement,setting,value
"OC[C@@H](O)[C@@H](O)[C@H](O)[C@@H](O)CO [Sorbitol, sorbitol]",Hb concentration,[1],250 µg/L
same,Recovery ratio with respect to Hb concentration after 0 days,[1],88%
same,Hb concentration,[2],235 µg/L
same,Recovery ratio with respect to Hb concentration after 0 days,[2],83%
same,Hb concentration,[3],223 µg/L
same,Recovery ratio with respect to Hb concentration after 0 days,[3],79%
same,Hb concentration,[4],294 µg/L
same,Recovery ratio with respect to Hb after 0 days,[4],100%
same,Hb concentration,[5],163 µg/L
same,Recovery ratio with respect to Hb after 0 days,[5],55%
same,Hb concentration,[6],145 µg/L
same,Recovery ratio with respect to Hb after 0 days,[6],49%
same,Hb concentration,[7],278 µg/L
same,Recovery ratio with respect to Hb concentration after 0 days,[7],100%
same,Hb concentration,[8],292 µg/L
same,Recovery ratio with respect to Hb after 0 days,[8],100%
same,Hb concentration,[9],244 µg/L
same,Recovery ratio with respect to Hb concentration after 0 days,[9],88%
same,Hb concentration,[10],246 µg/L
same,Recovery ratio with respect to Hb after 0 days,[10],84%
same,Hb concentration,[11],226 µg/L
same,Recovery ratio with respect to Hb concentration after 0 days,[11],81%
same,Hb concentration,[12],233 µg/L
same,Recovery ratio with respect to Hb after 0 days,[12],80%
same,Hb concentration,[13],219 µg/L
same,Recovery ratio with respect to Hb concentration after 0 days,[13],79%
same,Hb concentration,[14],273 µg/L
same,Recovery ratio with respect to Hb after 0 days,[14],100%
same,Hb concentration,[15],247 µg/L
same,Recovery ratio with respect to Hb after 0 days,[15],90%
same,Hb concentration,[16],230 µg/L
same,Recovery ratio with respect to Hb after 0 days,[16],84%
same,Hb concentration,[17],278 µg/L
same,Recovery ratio with respect to Hb concentration after 0 days,[17],100%
same,Hb concentration,[18],98 µg/L
same,Recovery ratio with respect to Hb concentration after 0 days,[18],35%
same,Hb concentration,[19],62 µg/L
same,Recovery ratio with respect to Hb concentration after 0 days,[19],22%
same,Hb concentration,[20],56 µg/L
same,Recovery ratio with respect to Hb concentration after 0 days,[20],20%
same,Hb concentration,[21],281 µg/L
same,Recovery ratio with respect to Hb concentration after 0 days,[21],100%
same,Hb concentration,[22],261 µg/L
same,Recovery ratio with respect to Hb concentration after 0 days,[22],93%
same,Hb concentration,[23],251 µg/L
same,Recovery ratio with respect to Hb concentration after 0 days,[23],89%
same,Hb concentration,[24],265 µg/L
same,Recovery ratio with respect to Hb concentration after 0 days,[24],94%
same,Hb concentration,[25],291 µg/L
same,Recovery ratio with respect to Hb after 0 days,[25],100%
same,Hb concentration,[26],277 µg/L
same,Recovery ratio with respect to Hb after 0 days,[26],95%
same,Hb concentration,[27],273 µg/L
same,Recovery ratio with respect to Hb after 0 days,[27],94%
same,Hb concentration,[28],276 µg/L
same,Recovery ratio with respect to Hb concentration after 0 days,[28],100%
same,Hb concentration,[29],288 µg/L
same,Recovery ratio with respect to Hb after 0 days,[29],100%
same,Hb concentration,[30],252 µg/L
same,Recovery ratio with respect to Hb concentration after 0 days,[30],91%
same,Hb concentration,[31],274 µg/L
same,Recovery ratio with respect to Hb after 0 days,[31],95%
same,Hb concentration,[32],244 µg/L
same,Recovery ratio with respect to Hb concentration after 0 days,[32],88%
same,Hb concentration,[33],268 µg/L
same,Recovery ratio with respect to Hb after 0 days,[33],93%
same,Hb concentration,[34],255 µg/L
same,Recovery ratio with respect to Hb concentration after 0 days,[34],92%
same,Hb concentration,[35],290 µg/L
same,Recovery ratio with respect to Hb after 0 days,[35],100%
same,Hb concentration,[36],295 µg/L
same,Recovery ratio with respect to Hb after 0 days,[36],102%
same,Hb concentration,[37],293 µg/L
same,Recovery ratio with respect to Hb after 0 days,[37],101%
same,Hb concentration,[38],255 µg/L
same,Recovery ratio with respect to Hb concentration after 0 days,[38],100%
same,Hb concentration,[39],239 µg/L
same,Recovery ratio with respect to Hb concentration after 0 days,[39],94%
same,Hb concentration,[40],235 µg/L
same,Recovery ratio with respect to Hb concentration after 0 days,[40],92%
same,Hb concentration,[41],236 µg/L
same,Recovery ratio with respect to Hb concentration after 0 days,[41],93%
same,recovery ratio of hemoglobin in the sample,"sugar 100 mmol/L further added to other arylboronic acids (3-CPBA, 3-HPBA, 3-APBA) 15 mmol/L, Feces 1, Feces 2, Feces 3",further improved
same,recovery ratio of hemoglobin in the samples containing fecal specimens,"sugar 100 mmol/L, preservation solutions containing no phenylboronic acid",does not improve
same,recovery ratio of hemoglobin in the sample,"sugar 50 or 100 mmol/L further added to phenylboronic acid 15 mmol/L, Feces 1, Feces 2, Feces 3",remarkably improved
same,recovery ratio of hemoglobin in the samples containing feces,"sugar added to phenylboronic acid 15 mmol/L, Feces 1, Feces 2, Feces 3",improved depending on the added concentration
